In ChEMBL document CHEMBL2176907, “Identification of multiple 5-HT₄ partial agonist clinical candidates for the treatment of Alzheimer's disease” (J Med Chem, 2012):
Values belong to the compound of their own block, whether it stands above or below them. The source made the active and inactive calls. No cut-off for these calls is given here.

How the values were obtained:
[1] = molecular target: CYP2D6 (Homo sapiens, UniProt P10635); test: Inhibition of CYP2D6 in human liver microsomes using dextromethorphan as substrate at 3 uM; format: ADME, Microsome; conditions: probe dextromethorphan
Chain of CYP2D6 (P10635 whole entry): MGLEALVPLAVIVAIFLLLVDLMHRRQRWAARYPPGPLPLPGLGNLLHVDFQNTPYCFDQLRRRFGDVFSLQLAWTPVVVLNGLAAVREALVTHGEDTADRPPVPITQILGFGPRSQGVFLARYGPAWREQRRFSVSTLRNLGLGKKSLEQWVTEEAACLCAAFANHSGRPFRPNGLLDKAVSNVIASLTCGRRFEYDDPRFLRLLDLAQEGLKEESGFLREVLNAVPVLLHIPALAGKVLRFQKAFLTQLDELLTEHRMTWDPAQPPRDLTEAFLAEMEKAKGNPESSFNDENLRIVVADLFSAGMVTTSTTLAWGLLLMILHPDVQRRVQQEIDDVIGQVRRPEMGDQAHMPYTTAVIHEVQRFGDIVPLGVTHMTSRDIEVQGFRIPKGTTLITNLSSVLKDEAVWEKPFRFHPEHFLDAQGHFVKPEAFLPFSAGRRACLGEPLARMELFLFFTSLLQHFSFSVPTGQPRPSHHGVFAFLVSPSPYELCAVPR

[2] = Apparent permeability from apical to basal side of RRCK cells at 2 uM after 2 hrs by transwell assay; format: ADME, cell-based, Canis lupus familiaris, MDCKII-LE; conditions: dog, MDCK
[3] = Intrinsic clearance in human liver microsomes; format: ADME, Microsome; conditions: read-out: CLH
[4] = molecular target: T1, 5-hydroxytryptamine receptor 4 (Homo sapiens, UniProt Q13639); test: Agonist activity at human 5HT4D receptor expressed in HEK293 cells assessed as cAMP production after 30 mins by HTRF assay relative to 5HT; format: functional, cell-based
T1 sequence (Q13639 whole entry): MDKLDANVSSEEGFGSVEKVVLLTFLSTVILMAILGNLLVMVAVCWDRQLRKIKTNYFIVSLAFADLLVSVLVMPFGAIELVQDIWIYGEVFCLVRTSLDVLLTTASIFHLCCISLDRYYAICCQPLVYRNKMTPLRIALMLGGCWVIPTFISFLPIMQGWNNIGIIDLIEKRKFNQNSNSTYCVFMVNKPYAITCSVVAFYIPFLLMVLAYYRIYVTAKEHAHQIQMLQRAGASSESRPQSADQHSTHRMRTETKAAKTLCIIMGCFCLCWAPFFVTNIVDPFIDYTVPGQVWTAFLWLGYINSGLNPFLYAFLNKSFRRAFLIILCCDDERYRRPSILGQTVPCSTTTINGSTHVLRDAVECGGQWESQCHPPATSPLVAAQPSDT

[5] = molecular target: T1, 5-hydroxytryptamine receptor 4; test: Agonist activity at human 5HT4D receptor expressed in HEK293 cells assessed as cAMP production after 30 mins by HTRF assay; format: functional, cell-based
[6] = molecular target: T1, 5-hydroxytryptamine receptor 4; test: biochemical
Description: Displacement of [3H]GR113808 from human 5HT4D receptor expressed in HEK293 cells after 30 mins by liquid scintillation counting

[7] = Intrinsic clearance in dog liver microsomes; format: ADME, Canis lupus familiaris, Microsome; conditions: read-out: CLH
[8] = Oral bioavailability in dog; format: ADME, organism-based, Canis lupus familiaris; conditions: in vivo
[9] = Intrinsic clearance in rat liver microsomes; format: ADME, Microsome; conditions: read-out: CLH
[10] = Oral bioavailability in rat; format: ADME, organism-based; conditions: in vivo
[11] = Clearance in iv dosed dog; format: ADME, organism-based, Canis lupus familiaris; conditions: in vivo
[12] = Clearance in iv dosed rat; format: ADME, organism-based; conditions: in vivo
[13] = test system: Canis familiaris; test: Gastrointestinal toxicity in beagle dog assessed as decrease in food intake administered as repeated dose for 7 days measured up to 1 month; format: organism-based, Canis lupus familiaris; conditions: in vivo, 168 h
[14] = test system: Rattus norvegicus; test: Gastrointestinal toxicity in Sprague-Dawley rat assessed as decrease in food intake administered as repeated dose for 7 days measured up to 1 month; format: organism-based; conditions: in vivo, 168 h
[15] = test system: Rattus norvegicus; test: Gastrointestinal toxicity in male Sprague-Dawley rat assessed as reduction in body weight at 100 mg/kg administered as repeated dose for 7 days measured up to 1 month; format: organism-based; parameters: dose 100 mg/kg; conditions: in vivo, 168 h
[16] = test system: Canis familiaris; test: Gastrointestinal toxicity in beagle dog assessed as emesis at 30 mg/kg administered as repeated dose for 7 days measured up to 1 month; format: organism-based, Canis lupus familiaris; parameters: dose 30 mg/kg; conditions: in vivo, 168 h
[17] = test system: Canis familiaris; test: Cardiotoxicity in beagle dog assessed as increase in systolic blood pressure at 10 mg/kg administered as repeated dose for 7 days measured up to 1 month; format: toxicity, organism-based, Canis lupus familiaris, Artery; parameters: dose 10 mg/kg; conditions: in vivo, 168 h
[18] = test system: Canis familiaris; test: Neurotoxicity in beagle dog assessed as convulsions at 30 mg/kg administered as repeated dose for 7 days measured up to 1 month; format: toxicity, organism-based, Canis lupus familiaris; parameters: dose 30 mg/kg; conditions: in vivo, 168 h
[19] = test system: Rattus norvegicus; test: Neurotoxicity in Sprague-Dawley rat assessed as convulsions at 100 mg/kg administered as repeated dose for 7 days measured up to 1 month; format: toxicity, organism-based; parameters: dose 100 mg/kg; conditions: in vivo, 168 h
[20] = test system: Rattus norvegicus; test: Procognitive activity in Wistar rat assessed as reversal of scopolamine-induced learning deficit at […], sc administered 30 mins prior to scopolamine-challenge measured on acquisition days 3 and 4 by Morris water maze testing; format: functional, organism-based; parameters: dose 0.032 mg/kg
[21] = test system: Rattus norvegicus; test: Receptor occupancy of 5HT4 receptor in Sprague-Dawley rat brain at 1 mg/kg, sc up to 4 hrs; format: functional; conditions: route subcutaneous
[22] = test system: Rattus norvegicus; test: Procognitive activity in Sprague-Dawley rat assessed as increase in acetylcholine level in prefrontal cortex at 1 mg/kg, sc after 3 hrs by brain microdialysis relative to control; format: functional, organism-based; parameters: dose 1 mg/kg
[23] = test system: Rattus norvegicus; test: Displacement of [3H]SB207145 from 5HT4 receptor in sc dosed Sprague-Dawley rat striatal membrane incubated for 45 mins prior to [3H]SB207145-adminsitration measured after 15 mins; format: functional, organism-based; conditions: Striatum
[24] = Ratio of free drug concentration in brain to free drug concentration in plasma in sc dosed Sprague-Dawley rat; format: ADME, organism-based; conditions: read-out: K(p,uu,brain)
[25] = AUC (0 to 4 hrs) in sc dosed Sprague-Dawley rat CSF by LC-MS/MS analysis; format: ADME, organism-based; parameters: time < 4 hr, route subcutaneous
[26] = test system: Plasma; test: Free AUC (0 to 4 hrs) in sc dosed Sprague-Dawley rat plasma by LC-MS/MS analysis; format: ADME, organism-based; conditions: in vivo
[27] = test system: Brain; test: Free AUC (0 to 4 hrs) in sc dosed Sprague-Dawley rat brain by LC-MS/MS analysis; format: ADME, organism-based; conditions: in vivo
[28] = test system: Rattus norvegicus; test: Receptor occupancy of 5HT4 receptor in Wistar rat at […], sc; conditions: route subcutaneous
[29] = test system: Canis familiaris; test: Gastrointestinal toxicity in beagle dog assessed as decrease in food intake administered as repeated dose for 7 days measured up to 14 days; format: organism-based, Canis lupus familiaris; conditions: in vivo
[30] = test system: Rattus norvegicus; test: Gastrointestinal toxicity in Sprague-Dawley rat assessed as decrease in food intake administered as repeated dose for 7 days measured up to 14 days; format: organism-based; conditions: in vivo
[31] = test system: Rattus norvegicus; test: Gastrointestinal toxicity in male Sprague-Dawley rat assessed as mucosal injury at 100 mg/kg administered as repeated dose for 7 days measured up to 14 days; format: organism-based; parameters: dose 100 mg/kg; conditions: in vivo
[32] = test system: Rattus norvegicus; test: Gastrointestinal toxicity in female Sprague-Dawley rat assessed as mucosal injury at 30 mg/kg administered as repeated dose for 7 days measured up to 14 days; format: organism-based; parameters: dose 30 mg/kg; conditions: in vivo
[33] = test system: Rattus norvegicus; test: Gastrointestinal toxicity in male Sprague-Dawley rat assessed as reduction in body weight at 100 mg/kg administered as repeated dose for 7 days measured up to 14 days; format: organism-based; parameters: dose 100 mg/kg; conditions: in vivo
[34] = test system: Rattus norvegicus; test: Gastrointestinal toxicity in female Sprague-Dawley rat assessed as reduction in body weight at 30 mg/kg administered as repeated dose for 7 days measured up to 14 days; format: organism-based; parameters: dose 30 mg/kg; conditions: in vivo
[35] = test system: Canis familiaris; test: Gastrointestinal toxicity in beagle dog assessed as emesis at 20 mg/kg administered as repeated dose for 7 days measured up to 14 days; format: organism-based, Canis lupus familiaris; parameters: dose 20 mg/kg; conditions: in vivo
[36] = test system: Canis familiaris; test: Cardiotoxicity in beagle dog assessed as increase in systolic blood pressure at 0.1 mg/kg administered as repeated dose for 7 days measured up to 1 month; format: toxicity, organism-based, Canis lupus familiaris, Artery; parameters: dose 0.1 mg/kg; conditions: in vivo, 168 h
[37] = test system: Canis familiaris; test: Neurotoxicity in beagle dog assessed as convulsions at 30 mg/kg administered as repeated dose for 7 days measured up to 14 days; format: toxicity, organism-based, Canis lupus familiaris; parameters: dose 30 mg/kg; conditions: in vivo
[38] = test system: Rattus norvegicus; test: Receptor occupancy of 5HT4 receptor in Sprague-Dawley rat brain at 5 mg/kg, sc up to 4 hrs; format: functional; conditions: route subcutaneous
[39] = test system: Rattus norvegicus; test: Procognitive activity in Sprague-Dawley rat assessed as increase in acetylcholine level in prefrontal cortex at 5 mg/kg, sc after 3 hrs by brain microdialysis relative to control; format: functional, organism-based; parameters: dose 5 mg/kg
[40] = molecular target: 5-hydroxytryptamine receptor 4 (Rattus norvegicus) (UniProt Q62758); test: Agonist activity at 5HT4 receptor in rat oesophagus assessed as reversal of carbamylcholine-induced contraction at 10 uM incubated at 7 mins post carbamylcholine-challenge measured after 30 mins relative to 5HT; format: functional
Chain of 5-hydroxytryptamine receptor 4 (Rattus norvegicus) (Q62758 whole entry): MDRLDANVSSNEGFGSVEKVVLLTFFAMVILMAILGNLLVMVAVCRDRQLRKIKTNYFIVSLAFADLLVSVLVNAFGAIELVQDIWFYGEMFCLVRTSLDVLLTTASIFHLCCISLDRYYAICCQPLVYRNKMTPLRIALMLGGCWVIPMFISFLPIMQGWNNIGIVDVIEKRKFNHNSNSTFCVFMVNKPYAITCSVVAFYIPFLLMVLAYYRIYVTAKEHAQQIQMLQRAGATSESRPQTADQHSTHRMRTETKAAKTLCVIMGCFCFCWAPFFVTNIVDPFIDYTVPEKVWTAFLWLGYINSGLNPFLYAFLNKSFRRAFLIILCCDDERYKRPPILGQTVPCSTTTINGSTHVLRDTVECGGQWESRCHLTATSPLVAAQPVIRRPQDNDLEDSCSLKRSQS

[41] = molecular target: T2, 5-hydroxytryptamine receptor 4 (Rattus norvegicus, UniProt Q62758)
T2 sequence (Q62758 whole entry): as above
Description: Agonist activity at rat 5HT4E receptor expressed in HEK293 cells assessed as increase in cAMP production after 30 mins by HTRF assay

[42] = molecular target: T2, 5-hydroxytryptamine receptor 4; remark: listed apart in the source
Description: Agonist activity at rat 5HT4S receptor expressed in HEK293 cells assessed as increase in cAMP production after 30 mins by HTRF assay

[43] = molecular target: T2, 5-hydroxytryptamine receptor 4; remark: listed apart in the source
Description: Agonist activity at rat 5HT4L receptor expressed in HEK293 cells assessed as increase in cAMP production after 30 mins by HTRF assay

[44] = molecular target: T1, 5-hydroxytryptamine receptor 4
Description: Agonist activity at human 5HT4E receptor expressed in HEK293 cells assessed as increase in cAMP production after 30 mins by HTRF assay

[45] = molecular target: T1, 5-hydroxytryptamine receptor 4; remark: listed apart in the source
Description: Agonist activity at human 5HT4B receptor expressed in HEK293 cells assessed as increase in cAMP production after 30 mins by HTRF assay

[46] = molecular target: T1, 5-hydroxytryptamine receptor 4; remark: listed apart in the source
Description: Agonist activity at human 5HT4A receptor expressed in HEK293 cells assessed as increase in cAMP production after 30 mins by HTRF assay

[47] = molecular target: T2, 5-hydroxytryptamine receptor 4; remark: listed apart in the source
Description: Displacement of [3H]GR113808 from 5HT4 receptor in rat striatal membrane after 30 mins by liquid scintillation counting

[48] = test system: MDR1; test: in vitro; conditions: dog, MDCK-MDR1
Description: Efflux ratio of permeability from basal to apical to apical to basal side of MDCK cells expressing MDR1 at 2 uM after 5 hrs by transwell assay

[49] = molecular target: T1, 5-hydroxytryptamine receptor 4; test: biochemical; remark: listed apart in the source
Description: Displacement of [3H]GR113808 from human 5HT4E receptor expressed in CHO cells after 30 mins by liquid scintillation counting

[50] = molecular target: T1, 5-hydroxytryptamine receptor 4; test: biochemical; remark: listed apart in the source
Description: Displacement of [3H]GR113808 from human 5HT4B receptor expressed in HEK293 cells after 30 mins by liquid scintillation counting

[51] = molecular target: T1, 5-hydroxytryptamine receptor 4; test: biochemical; remark: listed apart in the source
Description: Displacement of [3H]GR113808 from human 5HT4A receptor expressed in HEK293 cells after 30 mins by liquid scintillation counting

- inhibition at 3 µM [1]: 93%
SMILES: CCCCN1CCC(COc2noc3cccc(OCC4CCC4)c23)CC1

- inhibition at 3 µM [1]: 93%
- Emax [4]: 95%
- EC50 [5]: 6.3 nM
- Ki [6]: 5.2 nM
SMILES: CCCCN1CCC(COc2noc3cccc(OCC(C)(C)C)c23)CC1

The next lines start with the compound.

SMILES: CC(C)COc1cccc2onc(OCC3CCN(CC4(O)CCOCC4)CC3)c12
- Papp A→B at 2 h, 2 µM [2]: 3.8 ×10⁻⁶ cm/s
- inhibition at 3 µM [1]: 54%
- CLint scaled [3]: 72 mL/min/kg
- Emax [4]: 85%
- EC50 [5]: 0.98 nM
- Ki [6]: 0.36 nM

SMILES: OC1(CN2CCC(COc3noc4cccc(O[C@@H]5CCOC5)c34)CC2)CCOCC1 [PF-04995274]
- CLint scaled [7]: 27.9 mL/min/kg
- bioavailability [8]: 47%
- CLint scaled [9]: 48.9 mL/min/kg
- bioavailability [10]: 40%
- clearance [11]: 21.2 mL/min/kg
- clearance [12]: 81.8 mL/min/kg
- Activity [13]: Toxic
- Activity [14]: Toxic
- Activity [15]: Toxic
- Activity [16]: Toxic
- Activity [17]: Toxic
- Activity [18]: Toxic
- Activity [19]: Toxic
- Activity [20]: Active
- Occ [21]: >90%
- Activity [22]: Active
- Activity [23]: Dose-dependent effect
- Kp uu [24]: 0.7
- AUC(0-t) at 4 h [25]: 0.519 µM·h
- fAUC [26]: 1.054 µM·h
- fAUC [27]: 0.706 µM·h
- Papp A→B at 2 h, 2 µM [2]: 30 ×10⁻⁶ cm/s
- inhibition at 3 µM [1]: 13%
- CLint scaled [3]: 33 mL/min/kg
- Occ [28]: >90%

SMILES: CC(C)n1c(=O)n(C(=O)NCC2CCN(CC3(O)CCOCC3)CC2)c2cc(F)ccc21
- CLint scaled [7]: < 5.6 mL/min/kg
- bioavailability [8]: 100%
- CLint scaled [9]: 45.2 mL/min/kg
- bioavailability [10]: 40%
- clearance [11]: 40 mL/min/kg
- clearance [12]: 12.6 mL/min/kg
- Activity [29]: Toxic
- Activity [30]: Toxic
- Activity [31]: Toxic
- Activity [32]: Toxic
- Activity [33]: Toxic
- Activity [34]: Toxic
- Activity [35]: Toxic
- Activity [36]: Toxic
- Activity [37]: Toxic
- Occ [38]: >90%
- Activity [39]: Active
- Activity [40]: 70%
- Activity [23]: Dose-dependent effect
- Kp uu [24]: 1.6
- fAUC [26]: 0.0276 µM·h
- fAUC [27]: 0.0443 µM·h
- Papp A→B at 2 h, 2 µM [2]: 21.9 ×10⁻⁶ cm/s
- CLint scaled [3]: 24.3 mL/min/kg
- Emax [4]: 86%
- EC50 [5]: 0.9 nM
- EC50 [41]: 1.59 nM
- EC50 [42]: 0.9 nM
- EC50 [43]: 0.96 nM
- EC50 [44]: 0.98 nM
- EC50 [45]: 1.2 nM
- EC50 [46]: 0.38 nM
- Ki [47]: 1.5 nM
- efflux ratio at 5 h, 2 µM [48]: 1.41
- Ki [49]: 4.9 nM
- Ki [50]: 5.5 nM
- Ki [51]: 4.4 nM
- Ki [6]: 1.7 nM
